Activity calls are given as the source filed them.
Columns and labels:
[1] = target: Beta-2 adrenergic receptor (Homo sapiens, UniProt P07550); assay: ADRB2 activation measured by internalization – cell-based, FAP fluorogen, flow cytometry, cherry pick 1, dose response (AID 588763); assay type: functional
[2] = viability of uninfected HEp-2 cells – cell-based, HTS, cytotoxicity control for RSV inhibitor project, dose response (AID 2410); assay type: functional; conditions: human respiratory syncytial virus
[3] = target: T1, Caspase-3 (Homo sapiens, UniProt P42574); assay type: functional;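 further: Dose-response selectivity test against caspase-3 for candidate inhibitors of sentrin-specific proteases (SENPs)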
T1 sequence (P42574 whole entry): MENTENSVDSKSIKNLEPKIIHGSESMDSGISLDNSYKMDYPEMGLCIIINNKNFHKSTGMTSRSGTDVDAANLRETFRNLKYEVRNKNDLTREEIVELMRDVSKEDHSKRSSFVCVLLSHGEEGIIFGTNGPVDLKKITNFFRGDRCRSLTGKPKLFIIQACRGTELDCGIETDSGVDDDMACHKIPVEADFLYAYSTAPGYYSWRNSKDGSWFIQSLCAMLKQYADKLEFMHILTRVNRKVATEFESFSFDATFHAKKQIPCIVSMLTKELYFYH

[4] = target: T2, Sentrin-specific protease 6 (Homo sapiens, UniProt Q9GZR1); assay type: functional;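 further: Luminescence-based dose-response confirmatory assay of SENP6 inhibition, following up an ultra-high-throughput screen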
T2 sequence (Q9GZR1 whole entry): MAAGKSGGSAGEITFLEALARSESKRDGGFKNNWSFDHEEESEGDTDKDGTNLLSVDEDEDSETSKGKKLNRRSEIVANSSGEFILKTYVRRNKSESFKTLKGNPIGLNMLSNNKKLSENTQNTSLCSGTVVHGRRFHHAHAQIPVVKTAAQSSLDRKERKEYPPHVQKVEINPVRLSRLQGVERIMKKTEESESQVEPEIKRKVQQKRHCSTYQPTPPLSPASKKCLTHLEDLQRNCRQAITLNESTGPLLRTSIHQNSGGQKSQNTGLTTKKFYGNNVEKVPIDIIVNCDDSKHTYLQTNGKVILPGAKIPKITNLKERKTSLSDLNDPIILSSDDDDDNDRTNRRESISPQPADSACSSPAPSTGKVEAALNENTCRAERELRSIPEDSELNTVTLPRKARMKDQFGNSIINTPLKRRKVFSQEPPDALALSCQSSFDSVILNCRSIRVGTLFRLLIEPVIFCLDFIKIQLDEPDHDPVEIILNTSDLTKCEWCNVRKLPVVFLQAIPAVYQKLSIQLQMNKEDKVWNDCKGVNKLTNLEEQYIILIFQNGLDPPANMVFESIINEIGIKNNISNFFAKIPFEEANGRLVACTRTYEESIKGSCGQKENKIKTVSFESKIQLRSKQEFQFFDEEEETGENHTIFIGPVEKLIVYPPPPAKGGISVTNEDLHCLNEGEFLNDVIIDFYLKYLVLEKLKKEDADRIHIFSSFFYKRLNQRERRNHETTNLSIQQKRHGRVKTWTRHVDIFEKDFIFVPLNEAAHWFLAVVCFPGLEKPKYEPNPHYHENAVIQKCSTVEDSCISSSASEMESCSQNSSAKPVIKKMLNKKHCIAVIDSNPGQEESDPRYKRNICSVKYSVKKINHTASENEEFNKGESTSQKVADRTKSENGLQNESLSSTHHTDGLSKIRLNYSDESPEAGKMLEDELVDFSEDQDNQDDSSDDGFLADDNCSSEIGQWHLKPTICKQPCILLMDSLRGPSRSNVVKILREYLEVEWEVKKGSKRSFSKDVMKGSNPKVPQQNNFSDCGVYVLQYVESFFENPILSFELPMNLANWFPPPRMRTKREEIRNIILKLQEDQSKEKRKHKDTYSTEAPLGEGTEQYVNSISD

[5] = target: T3, Sentrin-specific protease 8 (Homo sapiens, UniProt Q96LD8); assay type: functional;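 further: luminescence read-out of SENP8 inhibition, dose-response confirmation following an ultra-high-throughput screen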
T3 sequence (Q96LD8 whole entry): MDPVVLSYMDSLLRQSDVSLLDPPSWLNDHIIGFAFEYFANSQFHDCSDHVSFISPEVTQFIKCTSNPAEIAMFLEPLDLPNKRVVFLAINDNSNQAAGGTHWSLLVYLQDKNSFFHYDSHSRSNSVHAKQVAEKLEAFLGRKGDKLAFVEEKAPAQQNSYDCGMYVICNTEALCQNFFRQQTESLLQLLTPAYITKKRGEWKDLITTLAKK

[6] = target: T4, Sentrin-specific protease 7 (Homo sapiens, UniProt Q9BQF6); assay type: functional;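 further: Luminescence-based dose-response confirmation of ultra-high-throughput screening hits, measuring inhibition of SENP7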
T4 sequence (Q9BQF6 whole entry): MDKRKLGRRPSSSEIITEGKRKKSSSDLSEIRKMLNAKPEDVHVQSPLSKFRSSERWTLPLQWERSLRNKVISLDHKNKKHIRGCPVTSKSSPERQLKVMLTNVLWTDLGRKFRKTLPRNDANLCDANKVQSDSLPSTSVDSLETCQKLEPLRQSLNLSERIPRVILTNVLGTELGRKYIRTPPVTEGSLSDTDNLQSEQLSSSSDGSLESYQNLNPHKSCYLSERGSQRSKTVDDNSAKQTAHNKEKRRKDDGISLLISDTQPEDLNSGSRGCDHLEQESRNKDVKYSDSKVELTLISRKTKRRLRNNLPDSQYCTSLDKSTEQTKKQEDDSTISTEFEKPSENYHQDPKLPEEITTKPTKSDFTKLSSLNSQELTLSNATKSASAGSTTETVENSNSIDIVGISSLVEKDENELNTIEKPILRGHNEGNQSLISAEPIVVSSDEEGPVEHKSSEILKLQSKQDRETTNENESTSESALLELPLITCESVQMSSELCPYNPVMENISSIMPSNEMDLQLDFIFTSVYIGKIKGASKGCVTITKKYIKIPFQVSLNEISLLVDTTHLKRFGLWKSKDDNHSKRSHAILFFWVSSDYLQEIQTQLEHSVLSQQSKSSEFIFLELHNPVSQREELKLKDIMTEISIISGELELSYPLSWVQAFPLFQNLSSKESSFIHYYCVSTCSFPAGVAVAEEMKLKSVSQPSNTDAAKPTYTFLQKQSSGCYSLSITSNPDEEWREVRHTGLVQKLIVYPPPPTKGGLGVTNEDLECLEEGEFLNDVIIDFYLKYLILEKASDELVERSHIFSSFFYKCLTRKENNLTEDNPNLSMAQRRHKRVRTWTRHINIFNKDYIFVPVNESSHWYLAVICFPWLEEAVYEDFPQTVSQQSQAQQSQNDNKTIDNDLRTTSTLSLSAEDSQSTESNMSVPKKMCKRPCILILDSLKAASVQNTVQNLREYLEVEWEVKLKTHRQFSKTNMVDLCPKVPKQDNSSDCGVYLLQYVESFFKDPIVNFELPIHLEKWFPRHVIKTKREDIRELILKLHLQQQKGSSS

[7] = system: HeLa; assay: ATP-based viability loss in HeLa cells – cell-based, CellTiter-Glo luminescence, cherry-pick samples, cytotoxicity control for MITF activator project, dose response (AID 540259); assay type: functional; conditions: Homo sapiens
[8] = target: Beta-galactosidase (Escherichia coli, UniProt Q8VNN2); assay: PubChem AID 485352; assay type: functional
Sequence of Beta-galactosidase (Q8VNN2 whole entry): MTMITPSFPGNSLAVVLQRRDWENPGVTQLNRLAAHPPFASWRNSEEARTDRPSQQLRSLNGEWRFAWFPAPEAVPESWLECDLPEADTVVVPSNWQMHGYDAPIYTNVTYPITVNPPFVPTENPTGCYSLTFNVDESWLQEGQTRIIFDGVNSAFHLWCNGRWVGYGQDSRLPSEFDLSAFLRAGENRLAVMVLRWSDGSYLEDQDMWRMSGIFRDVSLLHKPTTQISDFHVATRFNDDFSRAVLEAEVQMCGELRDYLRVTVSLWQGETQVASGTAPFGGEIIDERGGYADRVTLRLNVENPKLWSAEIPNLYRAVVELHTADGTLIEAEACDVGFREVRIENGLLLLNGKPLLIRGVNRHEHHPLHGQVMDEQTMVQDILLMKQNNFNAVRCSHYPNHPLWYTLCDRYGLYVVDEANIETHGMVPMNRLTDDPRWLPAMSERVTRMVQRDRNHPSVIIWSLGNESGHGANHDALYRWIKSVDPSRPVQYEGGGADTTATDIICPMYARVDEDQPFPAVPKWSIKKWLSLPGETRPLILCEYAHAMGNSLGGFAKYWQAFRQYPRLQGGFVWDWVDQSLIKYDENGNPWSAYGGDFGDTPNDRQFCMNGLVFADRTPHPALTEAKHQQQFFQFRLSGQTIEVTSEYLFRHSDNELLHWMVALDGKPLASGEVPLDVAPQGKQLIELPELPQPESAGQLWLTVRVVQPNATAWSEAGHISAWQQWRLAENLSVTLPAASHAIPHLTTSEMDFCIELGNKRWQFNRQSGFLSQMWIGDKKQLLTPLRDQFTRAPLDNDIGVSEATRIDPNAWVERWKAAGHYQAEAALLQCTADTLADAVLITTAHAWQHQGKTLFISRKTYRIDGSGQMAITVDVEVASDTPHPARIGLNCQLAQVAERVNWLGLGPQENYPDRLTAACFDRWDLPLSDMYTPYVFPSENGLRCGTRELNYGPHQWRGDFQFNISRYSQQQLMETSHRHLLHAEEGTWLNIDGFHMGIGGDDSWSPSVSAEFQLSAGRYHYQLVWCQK

[9] = target: Type-1 angiotensin II receptor (Homo sapiens, UniProt P30556); assay: antagonism of angiotensin II type 1 receptor – cell-based, uHTS hits, selectivity assay for APJ receptor antagonist project, dose response (AID 463214); assay type: functional;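 further: antagonist potency against angiotensin II stimulated AT1 response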
Sequence of Type-1 angiotensin II receptor (P30556 whole entry): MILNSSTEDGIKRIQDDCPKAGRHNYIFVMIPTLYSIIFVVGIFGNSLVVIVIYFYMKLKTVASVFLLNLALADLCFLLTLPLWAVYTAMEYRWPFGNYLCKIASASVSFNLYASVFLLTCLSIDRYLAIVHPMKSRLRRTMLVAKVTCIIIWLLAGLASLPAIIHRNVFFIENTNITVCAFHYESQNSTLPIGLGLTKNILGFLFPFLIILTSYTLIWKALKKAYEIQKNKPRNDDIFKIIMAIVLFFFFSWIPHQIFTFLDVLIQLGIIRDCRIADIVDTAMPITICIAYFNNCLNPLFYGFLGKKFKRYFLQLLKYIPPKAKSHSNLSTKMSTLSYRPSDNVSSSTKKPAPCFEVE

[10] = target: Genome polyprotein (dengue virus type 2, UniProt P29990); assay: flavivirus cap methylation enzyme inhibition – biochemical, confirmation dose response, primary screen (AID 588689); assay type: functional
Sequence of Genome polyprotein (P29990 2492-3391 limits assumed): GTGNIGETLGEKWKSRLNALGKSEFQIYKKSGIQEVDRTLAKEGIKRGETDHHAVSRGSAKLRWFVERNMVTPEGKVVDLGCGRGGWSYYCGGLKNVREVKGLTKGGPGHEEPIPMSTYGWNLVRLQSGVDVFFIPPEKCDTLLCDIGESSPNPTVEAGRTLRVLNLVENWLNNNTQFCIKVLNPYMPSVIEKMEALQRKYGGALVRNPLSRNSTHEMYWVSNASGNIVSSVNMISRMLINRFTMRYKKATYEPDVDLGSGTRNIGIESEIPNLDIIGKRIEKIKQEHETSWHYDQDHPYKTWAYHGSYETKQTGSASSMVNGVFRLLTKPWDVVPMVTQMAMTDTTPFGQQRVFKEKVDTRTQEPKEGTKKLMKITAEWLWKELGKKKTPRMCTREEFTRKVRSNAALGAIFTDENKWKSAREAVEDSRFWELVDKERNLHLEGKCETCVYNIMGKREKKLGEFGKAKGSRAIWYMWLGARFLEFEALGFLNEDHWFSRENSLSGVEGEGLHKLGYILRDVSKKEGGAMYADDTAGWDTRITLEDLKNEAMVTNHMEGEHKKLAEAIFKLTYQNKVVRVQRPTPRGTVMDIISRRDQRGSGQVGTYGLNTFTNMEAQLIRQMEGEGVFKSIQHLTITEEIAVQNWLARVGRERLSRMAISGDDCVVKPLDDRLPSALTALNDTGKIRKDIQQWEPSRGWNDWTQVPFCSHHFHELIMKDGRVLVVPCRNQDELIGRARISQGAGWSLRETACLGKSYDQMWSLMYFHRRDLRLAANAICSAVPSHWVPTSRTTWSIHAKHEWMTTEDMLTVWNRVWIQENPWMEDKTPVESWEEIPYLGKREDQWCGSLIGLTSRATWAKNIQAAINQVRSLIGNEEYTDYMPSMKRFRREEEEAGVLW

[11] = target: Cysteine protease ATG4B (Homo sapiens, UniProt Q9Y4P1); assay type: functional;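 further: Fluorescence-based dose-response confirmation assay measuring inhibition of ATG4B activity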
Sequence of Cysteine protease ATG4B (Q9Y4P1 whole entry): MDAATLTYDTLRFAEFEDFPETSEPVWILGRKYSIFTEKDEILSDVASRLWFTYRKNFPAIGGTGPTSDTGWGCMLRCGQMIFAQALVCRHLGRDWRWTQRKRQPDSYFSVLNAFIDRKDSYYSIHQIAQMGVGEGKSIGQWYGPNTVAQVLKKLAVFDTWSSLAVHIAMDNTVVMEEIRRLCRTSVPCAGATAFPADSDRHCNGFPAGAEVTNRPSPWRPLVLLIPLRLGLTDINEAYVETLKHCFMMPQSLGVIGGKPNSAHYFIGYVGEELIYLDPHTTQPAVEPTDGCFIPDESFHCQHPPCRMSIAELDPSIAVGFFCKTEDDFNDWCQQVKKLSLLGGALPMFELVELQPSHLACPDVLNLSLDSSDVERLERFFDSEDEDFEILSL

[12] = target: Phospholipase A2 (Homo sapiens, UniProt P04054); assay type: functional;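 further: confirmatory dose-response counterscreen on phospholipase A2, testing hits that came from an ultra-high-throughput screen for ATG4B inhibitors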
Sequence of Phospholipase A2 (P04054 whole entry): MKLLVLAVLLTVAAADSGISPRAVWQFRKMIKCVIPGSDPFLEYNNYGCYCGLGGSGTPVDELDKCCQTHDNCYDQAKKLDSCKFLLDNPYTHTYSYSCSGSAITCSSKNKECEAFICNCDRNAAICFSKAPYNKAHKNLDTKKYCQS

[13] = target: T5, Heat shock factor protein 1 (Mus musculus, UniProt P38532); assay: decrease of HSF1-responsive luciferase luminescence – cell-based, NIH3T3, dose retest, confirmation (AID 2382); assay type: functional;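 further: NIH3T3 fibroblasts with HSF1-driven luciferase reporter stressed by proteasome inhibitor MG132; luminescence from HSF1-driven luciferase expression after 8 hours of MG132 stress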
T5 sequence (P38532 whole entry): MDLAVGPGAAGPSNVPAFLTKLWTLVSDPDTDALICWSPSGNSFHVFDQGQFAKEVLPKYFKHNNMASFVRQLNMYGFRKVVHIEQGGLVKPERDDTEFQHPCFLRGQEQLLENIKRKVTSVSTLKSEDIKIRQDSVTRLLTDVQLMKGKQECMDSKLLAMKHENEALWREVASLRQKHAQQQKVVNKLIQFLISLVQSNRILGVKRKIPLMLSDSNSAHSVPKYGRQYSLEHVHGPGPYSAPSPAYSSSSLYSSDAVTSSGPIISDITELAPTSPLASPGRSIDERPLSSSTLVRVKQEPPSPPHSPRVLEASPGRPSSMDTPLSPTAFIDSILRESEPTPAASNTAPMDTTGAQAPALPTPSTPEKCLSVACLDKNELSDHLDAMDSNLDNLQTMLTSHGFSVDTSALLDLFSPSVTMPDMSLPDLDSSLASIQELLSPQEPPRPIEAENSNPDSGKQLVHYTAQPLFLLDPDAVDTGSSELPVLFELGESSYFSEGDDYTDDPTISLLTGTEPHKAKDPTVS

[14] = target: Voltage-dependent T-type calcium channel subunit alpha-1H (Homo sapiens, UniProt O95180); assay type: functional;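 further: channel activity triggered by adding a high calcium stimulation buffer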
[15] = Luminescence Cell-Based Dose Response HTS to Identify Activators of Luciferase Translation or Activity in H4 […] Cells. [Related pubchem assays: 1829 (Project Summary), 1814 (Primary HTS)]; assay type: functional
[16] = cells; assay type: functional, cell-based
[17] = target: T6, Oxysterols receptor LXR-beta (Homo sapiens, UniProt P55055); assay type: functional, cell-based;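 further: agonist activity at LXR measured by a cell-based luminescence readout across a dose range, run as a counterscreen for daf-12 agonists; HEK293 cells with Gal4-LXR fusion and GAL4-driven luciferase reporter; potency for activation of Gal4-LXR reporter so compounds are agonists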
T6 sequence (P55055 whole entry): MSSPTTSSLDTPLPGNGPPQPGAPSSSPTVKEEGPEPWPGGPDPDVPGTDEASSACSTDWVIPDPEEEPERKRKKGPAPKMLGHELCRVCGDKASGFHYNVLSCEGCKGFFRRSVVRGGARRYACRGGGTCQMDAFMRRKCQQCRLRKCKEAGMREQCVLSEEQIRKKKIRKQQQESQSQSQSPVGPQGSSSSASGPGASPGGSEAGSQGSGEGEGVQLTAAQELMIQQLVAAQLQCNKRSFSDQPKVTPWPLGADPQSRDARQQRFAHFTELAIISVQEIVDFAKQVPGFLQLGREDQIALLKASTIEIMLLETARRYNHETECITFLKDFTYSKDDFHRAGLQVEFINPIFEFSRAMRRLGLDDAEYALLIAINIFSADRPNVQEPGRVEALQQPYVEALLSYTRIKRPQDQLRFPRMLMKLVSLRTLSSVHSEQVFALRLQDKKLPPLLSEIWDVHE

[18] = target: T7, Nuclear receptor subfamily 0 group B member 1 (Homo sapiens, UniProt P51843); assay: Luminescence-based cell-based high throughput dose response assay for inhibitors of the orphan nuclear receptor subfamily 0, group B, member 1 (DAX1; NR0B1). [Related pubchem assays (depositor defined):AID504766, AID504790]; assay type: functional
T7 sequence (P51843 whole entry): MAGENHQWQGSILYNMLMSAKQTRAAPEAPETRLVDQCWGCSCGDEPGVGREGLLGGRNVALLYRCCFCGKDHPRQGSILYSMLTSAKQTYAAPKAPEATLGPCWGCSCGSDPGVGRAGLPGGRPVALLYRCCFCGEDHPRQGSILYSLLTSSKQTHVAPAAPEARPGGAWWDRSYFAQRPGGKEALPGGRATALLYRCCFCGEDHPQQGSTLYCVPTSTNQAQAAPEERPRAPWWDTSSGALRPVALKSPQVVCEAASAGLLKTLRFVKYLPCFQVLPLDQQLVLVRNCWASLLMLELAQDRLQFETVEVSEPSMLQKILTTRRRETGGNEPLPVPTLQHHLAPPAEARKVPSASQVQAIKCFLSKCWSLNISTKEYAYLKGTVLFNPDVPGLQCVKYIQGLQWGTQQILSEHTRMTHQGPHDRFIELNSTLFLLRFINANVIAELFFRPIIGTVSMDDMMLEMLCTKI

[19] = system: H4; assay: Luminescence Cell-Based Dose Response HTS to Identify Activators of 5'UTR Stem-Loop Driven Prion Protein mRNA Translation in H4 Neuroglioblastoma Cells. [Related pubchem assays: 1829 (Project Summary), 1814 (Primary HTS)]; assay type: functional; conditions: Homo sapiens
[20] = cells; assay type: functional, cell-based; remark: listed apart in the source
[21] = system: HEK293; assay: cells; assay type: functional, cell-based; conditions: Homo sapiens
[22] = Luminescence Cell-Based Dose Confirmation HTS to Identify Activators of 5'UTR Stem-Loop Driven Alpha-Synuclein mRNA Translation in H4 Neuroglioblastoma Cells. [Related pubchem assays: 1829 (Project Summary), 1814 (Primary HTS)]; assay type: functional
[23] = system: Vero; assay: viability of Vero cells under compound – cytotoxicity control for flavivirus capping enzyme inhibitors (AID 588742); assay type: functional; conditions: Chlorocebus sabaeus

Sequence of Beta-2 adrenergic receptor (P07550 whole entry): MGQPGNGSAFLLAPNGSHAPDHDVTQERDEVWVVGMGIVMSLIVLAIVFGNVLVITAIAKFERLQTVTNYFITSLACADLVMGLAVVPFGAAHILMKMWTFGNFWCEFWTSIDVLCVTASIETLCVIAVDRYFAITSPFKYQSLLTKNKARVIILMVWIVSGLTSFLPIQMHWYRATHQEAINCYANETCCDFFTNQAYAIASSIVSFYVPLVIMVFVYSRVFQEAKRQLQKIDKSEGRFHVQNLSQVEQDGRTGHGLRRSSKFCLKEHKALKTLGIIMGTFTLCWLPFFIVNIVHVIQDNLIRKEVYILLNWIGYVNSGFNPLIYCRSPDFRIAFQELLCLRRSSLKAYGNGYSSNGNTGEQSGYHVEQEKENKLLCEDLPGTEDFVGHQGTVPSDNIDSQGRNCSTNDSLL

CN(CC(=O)N1CCN(c2ncccn2)CC1)S(=O)(=O)c1ccc(Cl)cc1
EC50 [1]: 0.117 µM (active)

COc1cccc(NC(=O)c2csc3c2CCCC3)c1
CC50 [2]: 32.5 µM (active) | IC50 [3]: 19.2 µM (active) | IC50 [4]: 15.5 µM (active) | IC50 [5]: 18.9 µM (active) | IC50 [6]: 5.17 µM (active) | AC50 [7]: 49.7 µM (active)

Cc1cc(C(=O)OCC(=O)c2cccc([N+](=O)[O-])c2)c2ccccc2n1
EC50 [8]: > 40 µM (inactive) | IC50 [9]: 17.4 µM (active)

O=C1Nc2ccc(F)cc2C12Nc1ccccc1-c1nnc(SCc3ccccc3Cl)nc1O2 (stereo unspecified)
EC50 [8]: > 40 µM (inactive) | IC50 [10]: > 100 µM (active) | IC50 [9]: 25.5 µM (not active)

CCOC(=O)C1CCCN(C(=O)c2ccc3c(=O)n(Cc4ccccc4OC)c(=S)[nH]c3c2)C1 (stereo unspecified)
IC50 [11]: 19.6 µM (active) | IC50 [12]: 9.33 µM (active)

CC(=O)Nc1ccc(-c2cn3c(n2)SCC3)cc1
EC50 [13]: > 195 µM (not active) | EC50 [1]: 10.9 µM (inactive)

Cc1cccc(C)c1OCC(=O)Nc1cccc(NC(=O)c2ccco2)c1
IC50 [11]: 15.9 µM (active) | IC50 [12]: 8.37 µM (active) | EC50 [14]: 6.78 µM (active)

O=C(Nc1ncccc1O)c1ccc(C(=O)c2ccccc2)cc1
EC50 [15]: 16.4 µM (active) | EC50 [16]: 48.2 µM (active) | EC50 [17]: > 67.5 µM (inactive) | IC50 [18]: > 67.6 µM (inactive) | EC50 [19]: 23 µM (active) | EC50 [20]: 72.7 µM (active) | IC50 [21]: 1.04 µM (active) | EC50 [22]: 11.4 µM (active)

COC(=O)COc1ccc(C(C2C(=O)CC(C)(C)CC2=O)C2C(=O)CC(C)(C)CC2=O)cc1
IC50 [10]: 48 µM (active) | CC50 [23]: > 40 µM (active)

Cc1ccc2[nH]c(/C(C#N)=C/c3ccccc3C(=O)O)nc2c1
IC50 [18]: > 67.5 µM (inactive) | IC50 [21]: > 67.5 µM (inactive)

Reference: ChEMBL document CHEMBL1201862, “PubChem BioAssay data set” (2004)
